Assay [1] has as its system transketolase (TKT). Put plainly: western blot with anti-mouse TKT antibody and immunohistochemical analysis of mouse eyes. It counts as in vivo, mice. Particulars: injured corneas; for TKT detected by anti-mouse TKT antibody on western blot (longer film exposure): WA 2.5 mg/kg/d or epoxomicin 2.0 mg/kg/d, not detected in vehicle. How it is done:
(§1) To investigate the levels and timing of expression of TKT we performed time-course experiments using the angioinflammation corneal model of tissue repair. Groups of mice ([…]) were injured and treated every day with vehicle (Veh), 2.5 mg/kg/d WA or 2.0 mg/kg/d epoxomicin (20S proteasome inhibitor) and sacrificed on day 4 and 6 post-inflammation. In a similar experiment, mice were treated every day with vehicle or 2.5 mg/kg/d WA and sacrificed on days 3 and 5 post-injury. Equal amounts of protein from pooled samples of each group were subjected to immunoblotting or Coomassie blue staining after fractionation on 4-20% gradient polyacrylamide gels (BioRad).
(§2) The western blots of the corneal samples were re-probed with an anti-mouse TKT antibody. […] Because of the strong Ub-immunoreactivity of TKT in injured corneas, we speculate that this protein's N-terminal antigenic site is being masked by ubiquitination in the injury-related samples (the TKT antibody reacts with the N-terminal 20-amino acid portion of native TKT).
To investigate the localization of TKT, immunohistochemical analysis of mouse eyes was conducted. TKT expression is localized to the epithelium of uninjured mouse eyes, whereas TKT expression in corneas of 4 d vehicle-treated mice is almost undetectable.
On the technique in general: A western blot detects proteins with antibodies after separation by electrophoresis.

In assay [2] the test system is ubiquitin proteasome pathway (UPP). Put plainly: UPP functions in the alkali burn injury model of corneal angiofibrotic disease. It counts as in vivo. An excerpt: The abundant corneal protein tissue transketolase (TKT) is believed to play an important role in corneal homeostasis. TKT is also a target of the UPP and its reduced expression is believed to contribute to corneal fibrosis. In the present invention, targeting the UPP in injured tissue can redirect the fibrotic repair process to acquire regenerative healing. Withanolides and related compounds, such as withaferin A, withanolide D and ixocarpalactone, are small molecule inhibitors that have potent UPP-targeting activity. […] There is also a reduction in the levels of ubiquitinated transketolase (TKT), an abundant corneal protein implicated in fibrogenesis.

The subject of assay [3] is native I-kappa-B-alpha. Put plainly: western blotting of corneal buttons from injured healing corneas: I-kappa-B-alpha. It counts as in vivo, mice. The note with it: different doses i.p. daily for first 4 days, corneas taken day 7, western blot. How it is done:
(§3) The corneas of C57BL6 mice under anesthesia were injured by application of 0.1 N sodium hydroxide and subsequently the epithelial cell layer from the cornea and limbus was removed by scraping. Withaferin A (WA) (2.5 mg/kg/d; 4 mice) or vehicle (DMSO; 4 mice) was provided daily thereafter by i.p. injection for 6 d. Digital images of the corneas were obtained to assess the extent of tissue pathology. […] These compelling results invoke the query whether WA targets the UPP in vivo. Mice (4 per group) were injured and treated for the first 4 days with a different dose of WA or vehicle daily by i.p. injection. On day 7, mice were sacrificed and corneal buttons were isolated from injured healing corneas; equal amounts of protein from each group were analyzed by western blotting. Uninjured fellow eyes from vehicle-treated mice served as controls.

The subject of assay [4] is HO-1. Kind of assay: western blotting of corneal buttons from injured healing corneas: HO-1. Particulars: i.p. daily for first 4 days, corneas taken day 7, western blot. Type of assay: in vivo, mice. The method, then: as §3
The subject of assay [5] is ubiquitinated transketolase (70 kDa ubiquitinated protein). Put plainly: immunoblotting / Coomassie blue staining of corneal protein, angioinflammation corneal model: ubiquitinated transketolase. It counts as in vivo, mice. The method, then: as §1, §2
In assay [6] the test system is cornea injured by 0.1 N sodium hydroxide (corneal opacity, neovascularization). Kind of assay: alkali burn corneal injury model, digital images of corneas. It counts as in vivo, C57BL6 mice. Particulars: 2.5 mg/kg/d i.p. daily for 6 d after alkali burn, versus vehicle (DMSO). How it is done: as §3

The text below walks through data of patent US8283323B2, “Withanolide compounds as inhibitors of fibrosis and identification of molecular targets for anti-fibrotic drug development” (University of Kentucky Research Foundation, priority 2006, dated 2012).

As to `CC[C@H](C)[C@H](NC(=O)[C@H]([C@@H](C)CC)N(C)C(C)=O)C(=O)N[C@H](C(=O)N[C@@H](CC(C)C)C(=O)[C@@]1(C)CO1)[C@@H](C)O` [epoxomicin, reference compound], in assay [1], the “TKT detected by anti-mouse TKT antibody on western blot (longer film exposure)” value was “presence of the TKT”.
As to `CC1=C(CO)C(=O)O[C@@H]([C@@H](C)[C@H]2CC[C@H]3[C@@H]4C[C@H]5O[C@]56[C@@H](O)C=CC(=O)[C@]6(C)[C@H]4CC[C@]23C)C1` [WA, Withaferin A], the UPP functions result in assay [2] is listed as “potent downregulation”. Further, in assay [3], the “corneal expression of native I-kappa-B-alpha” value is “dose-dependently inhibits”. Besides, the “HO-1 expression in cornea” value in assay [4] is recorded as “potently downregulated HO-1 expression to almost undetectable levels”. The “TKT staining in cornea, immunohistochemical analysis” value in assay [1] (4 d, compared with uninjured and vehicle-treated) is “present, although at levels lower than that of uninjured cornea”. Moreover, the “TKT detected by anti-mouse TKT antibody on western blot (longer film exposure)” value in assay [1] was “presence of the TKT”. Besides, the “expression of 70 kDa ubiquitinated protein (UbTKT) in cornea, ubiquitin immunoblot” value in assay [5] (2.5 mg/kg/d every day, injured corneas, versus vehicle) is listed as “abundantly expressed in vehicle-treated mouse corneas compared to corneas from WA-treated mice”. In addition, the “levels of the 70 kDa protein by Coomassie blue staining” value in assay [5] (uninjured, vehicle and WA-treated samples, 3-, 5-, 4- and 6-day time-points) is “not significantly altered”. In addition, in assay [6], the corneal opacity result is recorded as “dramatically reduced” and the “neovascularization (growth of new blood vessels in cornea)” value is recorded as “dramatically reduced”.
